Experimental findings from ChEMBL document CHEMBL5370672, “Discovery of Orally Bioavailable Phthalazinone Analogues as an ENPP1 Inhibitor for STING-Mediated Cancer Immunotherapy” (J Med Chem, 2023) are described below.

The target of assay [1] is T1, Ectonucleotide pyrophosphatase/phosphodiesterase family member 1 (Homo sapiens, UniProt P22413).
T1 sequence (P22413 whole entry): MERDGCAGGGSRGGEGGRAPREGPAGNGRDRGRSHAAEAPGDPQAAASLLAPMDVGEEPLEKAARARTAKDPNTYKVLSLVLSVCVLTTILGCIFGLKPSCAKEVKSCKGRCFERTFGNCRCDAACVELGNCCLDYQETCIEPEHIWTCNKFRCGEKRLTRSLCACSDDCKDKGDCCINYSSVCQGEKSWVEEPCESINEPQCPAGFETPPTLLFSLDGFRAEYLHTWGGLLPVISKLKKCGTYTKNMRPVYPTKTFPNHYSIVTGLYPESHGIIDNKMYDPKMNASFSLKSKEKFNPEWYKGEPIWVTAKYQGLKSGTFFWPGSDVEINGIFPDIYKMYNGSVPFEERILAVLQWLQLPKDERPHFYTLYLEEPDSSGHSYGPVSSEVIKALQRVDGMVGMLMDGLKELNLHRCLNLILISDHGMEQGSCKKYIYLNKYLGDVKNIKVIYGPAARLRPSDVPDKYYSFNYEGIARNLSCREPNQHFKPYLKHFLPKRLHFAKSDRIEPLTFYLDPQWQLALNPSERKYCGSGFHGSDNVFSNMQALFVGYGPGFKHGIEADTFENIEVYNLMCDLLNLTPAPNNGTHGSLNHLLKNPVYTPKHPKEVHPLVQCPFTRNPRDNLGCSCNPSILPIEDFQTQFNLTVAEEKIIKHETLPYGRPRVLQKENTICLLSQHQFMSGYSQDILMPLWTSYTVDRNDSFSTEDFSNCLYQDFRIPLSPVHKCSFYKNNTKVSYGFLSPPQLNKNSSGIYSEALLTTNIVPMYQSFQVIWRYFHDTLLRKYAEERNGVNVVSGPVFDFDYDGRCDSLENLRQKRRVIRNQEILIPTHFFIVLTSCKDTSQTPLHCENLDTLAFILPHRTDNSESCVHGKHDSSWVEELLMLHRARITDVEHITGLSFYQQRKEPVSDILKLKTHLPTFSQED
The experiment in a line: Inhibition of recombinant human ENPP1 using cGAMP as substrate assessed as inhibition of cGAMP hydrolysis preincubated for 5 to 10 mins followed by substrate addition and measured after 90 mins by AMP-Glo reagent based luminescence plate reader analysis.

Assay [2] addresses Stimulator of interferon genes protein (Homo sapiens) (UniProt Q86WV6). The experiment in a line: Activation of STING-mediated immune response in human HCT-116 cells transfected with ISRE reporter assessed as increase in cGAMP-induced ISRE activation at 25 to 100 uM preincubated with compound for 1 hrs followed by cGAMP addition and measured after 48 hrs by luciferase reporter gene assay. The format is cell-based. As to conditions: filed as activator, dose 25-100 µM, time 49.0 hrs.

Assay [3] has the same target. The experiment in a line: Activation of STING-mediated immune response in human HCT-116 cells transfected with ISRE reporter assessed as increase in cGAMP-induced ISRE activation by measuring fold change at 100 uM preincubated with compound for 1 hrs followed by cGAMP addition and measured after 48 hrs by luciferase reporter gene assay. As to conditions: filed as activator, time 49.0 hrs. The format is cell-based. For orientation: Reporter assays use an easily measured gene product as a stand-in for the process of interest.

The target is the same in assay [4]. The assay can be described thus: Activation of STING-mediated immune response in human HCT-116 cells transfected with ISRE reporter assessed as increase in cGAMP-induced ISRE activation by measuring fold change at 25 to 100 uM preincubated with compound for 1 hrs followed by cGAMP addition and measured after 48 hrs by luciferase reporter gene assay. The format is cell-based. Conditions: filed as activator, dose 25-100 µM, time 49.0 hrs.

The structures appear in SMILES notation. pIC50: −log10 of the molar value. Activity calls are given as the source filed them. The rule behind the calls is not given here.

The pIC50 is the IC50 on a negative log10 scale, so that one unit is a factor of ten.

Stimulator of interferon genes protein (Homo sapiens), sequence (Q86WV6 whole entry): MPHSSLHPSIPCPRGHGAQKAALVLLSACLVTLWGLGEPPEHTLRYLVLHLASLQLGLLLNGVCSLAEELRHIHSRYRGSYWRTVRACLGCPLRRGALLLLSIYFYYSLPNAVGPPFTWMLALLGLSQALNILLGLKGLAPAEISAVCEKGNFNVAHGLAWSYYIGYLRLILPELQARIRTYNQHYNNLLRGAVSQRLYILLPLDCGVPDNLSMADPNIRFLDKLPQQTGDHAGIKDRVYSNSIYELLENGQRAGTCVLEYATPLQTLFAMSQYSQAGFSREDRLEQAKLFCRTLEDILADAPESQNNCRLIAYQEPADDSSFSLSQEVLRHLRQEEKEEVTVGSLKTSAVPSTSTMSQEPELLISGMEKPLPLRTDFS

With `COc1cc2c(Cc3ccc(N(C)S(N)(=O)=O)cc3)n[nH]c(=O)c2cc1OC`, in assay [1], the pIC50 was 6.78. In addition, in assay [2], the outcome was Active.

For `NS(=O)(=O)NCc1ccc(-c2n[nH]c(=O)c3ccccc23)cc1C(F)(F)F`, the pIC50 in assay [1] was 6.42.

Take `NS(=O)(=O)NCc1ccc(-c2nn(Cc3ccccc3)c(=O)c3ccccc23)cc1`: the pIC50 in assay [1] was 5.84.

Turning to `COc1ccc2c(-c3ccc(CNS(N)(=O)=O)cc3)n[nH]c(=O)c2c1`, the pIC50 in assay [1] was 6.23.

Regarding `COc1ccc2c(=O)n(C)nc(-c3ccc(CNS(N)(=O)=O)cc3)c2c1`, the pIC50 in assay [1] was 5.88.

For `COc1cc2c(Cc3ccc(N(C)S(N)(=O)=O)cc3)nn(C)c(=O)c2cc1OC`, the pIC50 in assay [1] is 6.61. In assay [2], the outcome was Active.

Take `Cn1nc(-c2ccc3c(c2)CCN(S(N)(=O)=O)C3)c2ccccc2c1=O`: in assay [1], the pIC50 was 5.65.

As to `COc1cc2c(Cc3ccc(NS(N)(=O)=O)cc3)nn(C)c(=O)c2cc1OC`, the pIC50 in assay [1] was 6.93. Moreover, in assay [2], the result was Active.

As to `Cn1nc(-c2ccc(CCS(N)(=O)=O)cc2)c2ccccc2c1=O`, the pIC50 in assay [1] was 5.74.

Consider `NS(=O)(=O)NCc1ccc(-c2n[nH]c(=O)c3ccccc23)cc1`, for which, in assay [1], the pIC50 was 6.86. In assay [3], the fold change (FC) came to 1.71.

For the compound `Cn1nc(N2CCC(CNS(N)(=O)=O)CC2)c2ccccc2c1=O`, in assay [1], the pIC50 is 5.61.

For the compound `NS(=O)(=O)NCc1ccc(-c2nn(-c3ccccc3)c(=O)c3ccccc23)cc1`, the pIC50 in assay [1] is 5.94.

As to `CN(c1ccc(Cc2n[nH]c(=O)c3ccccc23)cc1)S(N)(=O)=O`, the pIC50 in assay [1] is 5.94.

Take `COc1cc2c(N3CCC(CNS(N)(=O)=O)CC3)nn(C)c(=O)c2cc1OC`: in assay [1], the pIC50 was 6.34.

`NS(=O)(=O)Nc1ccc(Cc2n[nH]c(=O)c3ccccc23)c(C(F)(F)F)c1`: the pIC50 in assay [1] is 5.87.

As for `Cn1nc(-c2ccc(CNS(N)(=O)=O)cc2)c2ccccc2c1=O`, the pIC50 in assay [1] was 6.54. Also, the fold change (FC) in assay [3] was determined as 1.75.

`NS(=O)(=O)Nc1ccc(Cc2n[nH]c(=O)c3ccccc23)cc1`: the pIC50 in assay [1] is 7.41. Also, in assay [4], the fold change (FC) worked out at 1.85.

For `COc1cc2c(Cc3ccc4c(c3)CCN4S(N)(=O)=O)nn(C)c(=O)c2cc1OC`, the pIC50 in assay [1] was 6.68. The fold change (FC) in assay [4] was found to be 3.23.

Take `COc1cc2c(Cc3ccc(NS(N)(=O)=O)cc3)n[nH]c(=O)c2cc1OC`: the pIC50 in assay [1] was 7.16. For the same compound, in assay [4], the fold change (FC) turned out to be 2.49.

As to `NS(=O)(=O)Nc1ccc(Cc2n[nH]c(=O)c3ccccc23)cc1F`, the pIC50 in assay [1] was 6.53. Besides, in assay [2], the result was Active.

On to `COc1cc2c(N3CCC(CNS(N)(=O)=O)CC3)n[nH]c(=O)c2cc1OC`, for which the negative-log IC50 (pIC50) in assay [1] is 6.40.

Consider `NS(=O)(=O)Nc1ccc(Cc2n[nH]c(=O)c3ccccc23)cc1C(F)(F)F`, for which the pIC50 in assay [1] is 5.66.

Consider `COc1cc2c(Cc3ccc4c(c3)CCN4S(N)(=O)=O)n[nH]c(=O)c2cc1OC`, for which the negative logarithm of the IC50 (pIC50) in assay [1] was 6.68. In addition, the fold change (FC) in assay [4] came out at 1.53.

As to `NS(=O)(=O)Nc1ccc(Cc2n[nH]c(=O)c3ccccc23)c(F)c1`, the negative logarithm of the IC50 (pIC50) in assay [1] is 6.56. In addition, in assay [2], the outcome was Active.

For the compound `NS(=O)(=O)NCC1CCN(c2n[nH]c(=O)c3ccccc23)CC1`, the negative-log IC50 (pIC50) in assay [1] was 6.36.

`COc1cc2c(-c3ccc(CNS(N)(=O)=O)cc3)n[nH]c(=O)c2cc1OC`: the pIC50 in assay [1] was 7.43. In assay [3], the fold change (FC) was determined as 1.07.
